Experimental data taken from ChEMBL document CHEMBL3865823, “Ameliorative effects of amide derivatives of 1,3,4-thiadiazoles on scopolamine induced cognitive dysfunction” (Eur J Med Chem, 2016).

Legend:
Acetylcholinesterase [1] = biological target: T1, Acetylcholinesterase (Mus musculus, UniProt P21836); experiment: Inhibition of albino mouse brain AChE using acetylthiocholine iodide as substrate measured for 2 mins by Ellmans method; format: tissue-based
T1 sequence (P21836 whole entry): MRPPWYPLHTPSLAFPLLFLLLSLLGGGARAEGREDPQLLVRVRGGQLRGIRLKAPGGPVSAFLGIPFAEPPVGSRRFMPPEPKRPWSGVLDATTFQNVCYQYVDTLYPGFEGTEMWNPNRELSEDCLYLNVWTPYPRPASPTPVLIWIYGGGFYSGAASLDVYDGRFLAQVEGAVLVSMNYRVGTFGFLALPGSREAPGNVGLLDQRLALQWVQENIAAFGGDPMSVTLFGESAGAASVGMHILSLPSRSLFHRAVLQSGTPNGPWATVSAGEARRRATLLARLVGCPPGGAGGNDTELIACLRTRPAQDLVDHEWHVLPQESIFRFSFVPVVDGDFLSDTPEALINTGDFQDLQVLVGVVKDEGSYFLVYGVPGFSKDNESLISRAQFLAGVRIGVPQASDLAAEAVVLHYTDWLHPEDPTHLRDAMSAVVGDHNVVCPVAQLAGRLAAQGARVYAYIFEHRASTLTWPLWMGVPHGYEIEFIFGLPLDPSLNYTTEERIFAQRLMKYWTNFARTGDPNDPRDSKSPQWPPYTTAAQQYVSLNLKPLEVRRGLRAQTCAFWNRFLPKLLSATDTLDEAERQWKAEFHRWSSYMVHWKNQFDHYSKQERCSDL

Acetylcholinesterase [2] = biological target: T1, Acetylcholinesterase; experiment: Uncompetitive inhibition of albino mouse brain AChE using acetylthiocholine iodide as substrate measured up to 2 mins by Ellmans method
Mus musculus [3] = experiment: Neuroprotective activity against scopolamine-induced oxidative damage in albino mouse assessed as lipid peroxidation in brain by measuring MDA level per mg protein at 0.5 mg/kg, ip administered 5 mins post scopolamine-challenge by TBARS assay (reference value: 2.73 +/- 0.36 mol); format: functional
Mus musculus [4] = experiment: Neuroprotective activity against scopolamine-induced oxidative damage in albino mouse assessed as catalase activity by measuring H2O2 decomposition per mg of protein at 0.5 mg/kg, ip administered 5 mins post scopolamine-challenge (reference value: 1.37 +/- 0.25 micromol/min); format: functional
Mus musculus [5] = experiment: Inhibition of scopolamine-induced increase in AchE level in albino mouse assessed as AChE level in brain at 0.5 mg/kg, ip administered 5 mins post scopolamine-challenge using acetlythiocholine iodidie as substrate by Ellman's method (reference value: 0.011 +/- 0.0022 umol/min/mg); format: functional
Mus musculus [6] = experiment: Neuroprotective activity against scopolamine-induced oxidative damage in albino mouse assessed as glutathione reductase level in brain measured per mg of protein at 0.5 mg/kg, ip administered 5 mins post scopolamine-challenge by Ellamns assay (reference value: 0.008 +/- 0.001 umol); format: functional
Mus musculus [7] = experiment: Neuroprotective activity against scopolamine-induced oxidative damage in albino mouse assessed as nitrite level in plasma at 0.5 mg/kg, ip administered 5 mins post scopolamine-challenge by Greiss assay (reference value: 483.5 +/- 27.1 ug/ml); format: functional
Mus musculus [8] = experiment: Neuroprotective activity against scopolamine-induced oxidative damage in albino mouse assessed as superoxide dismutase level in brain at 0.5 mg/kg, ip administered 5 mins post scopolamine-challenge measured at every 30 to 60 secs interval for 2 mins by NBT reduction assay (reference value: 0.17 +/- 0.03 U/mg); format: functional
Acetylcholinesterase [9] = biological target: T1, Acetylcholinesterase; experiment: Competitive inhibition of albino mouse brain AChE using acetylthiocholine iodide as substrate measured up to 2 mins by Ellmans method
Mus musculus [10] = experiment: Antiamnesic activity against scopolamine-induced memory loss in albino mouse assessed as escape latency time at 0.5 mg/kg, ip administered 5 mins post scopolamine-challenge and 35 mins prior to training measured on day 5 by Morris water maze test (reference value: 84.92 +/- 1.64 sec); format: functional
Mus musculus [11] = experiment: Antiamnesic activity against scopolamine-induced memory loss in albino mouse assessed as latency to reach shock free zone at 0.5 mg/kg, ip administered 5 mins post scopolamine-challenge and 35 mins prior to training by passive avoidance test (reference value: 53.25 +/- 1.37 sec); format: functional
Mus musculus [12] = experiment: Antiamnesic activity against scopolamine-induced memory loss in albino mouse assessed as escape latency time at 0.5 mg/kg, ip administered 5 mins post scopolamine-challenge and 35 mins prior to training measured on day 3 by Morris water maze test (reference value: 88.33 +/- 0.95 sec); format: functional
Mus musculus [13] = experiment: Antiamnesic activity against scopolamine-induced memory loss in albino mouse assessed as escape latency time at 0.5 mg/kg, ip administered 5 mins post scopolamine-challenge and 35 mins prior to training measured on day 2 by Morris water maze test (reference value: 89.41 +/- 0.39 sec); format: functional
Mus musculus [14] = experiment: Antiamnesic activity against scopolamine-induced memory loss in albino mouse assessed as escape latency time at 0.5 mg/kg, ip administered 5 mins post scopolamine-challenge and 35 mins prior to training measured on day 1 by Morris water maze test (reference value: 89.67 +/- 0.23 sec); format: functional
Mus musculus [15] = experiment: Antiamnesic activity against scopolamine-induced memory loss in albino mouse assessed as basal latency to reach shock free zone at 0.5 mg/kg, ip administered 5 mins post scopolamine-challengen and 35 mins prior to training by passive avoidance test (reference value: 40.25 +/- 2.84 sec); format: functional
Mus musculus [16] = experiment: Antiamnesic activity against scopolamine-induced memory loss in albino mouse assessed as time spent in target quadrant at 0.5 mg/kg, ip administered 5 mins post scopolamine-challenge and 35 mins prior to training measured on day 5 by Morris water maze test (reference value: 4 +/- 1.15 sec); format: functional
Mus musculus [17] = experiment: Antiamnesic activity against scopolamine-induced memory loss in albino mouse assessed as number of mistakes at 0.5 mg/kg, ip administered 5 mins post scopolamine-challenge and 35 mins prior to training by passive avoidance test (reference value: 12.25 +/- 0.47); format: functional
Mus musculus [18] = experiment: Antiamnesic activity against scopolamine-induced memory loss in albino mouse assessed as escape latency time at 0.5 mg/kg, ip administered 5 mins post scopolamine-challenge and 35 mins prior to training measured on day 4 by Morris water maze test (reference value: 87.17 +/- 1.03 sec); format: functional

Row | SMILES | IC50 (Acetylcholinesterase [1]) | Ki (Acetylcholinesterase [2]) | Activity (Mus musculus [3]) | Activity (Mus musculus [4]) | Activity (Mus musculus [5]) | Activity (Mus musculus [6]) | Activity (Mus musculus [7]) | Activity (Mus musculus [8]) | Ki (Acetylcholinesterase [9]) | Time (Mus musculus [10]) | Time (Mus musculus [11]) | Time (Mus musculus [12]) | Time (Mus musculus [13]) | Time (Mus musculus [14]) | Time (Mus musculus [15]) | Time (Mus musculus [16]) | Activity (Mus musculus [17]) | Time (Mus musculus [18])
1 | CC(CC(=O)Nc1nnc(-c2ccccc2)s1)CC(C)(C)C (stereo unspecified) | 23.7 µM | 7.6 µM |  |  |  |  |  |  |  |  |  |  |  |  |  |  |  | 
2 | O=C(Nc1nnc(Cc2ccccc2)s1)c1cccc(CCl)c1 | 20.3 µM | 5.06 µM | 0.98 nmol | 1.74 µmol/min | 0.003 µmol/min/mg | 0.01 µmol | 324.8 µg/mL | 5.26 U/mg |  |  |  |  |  |  |  |  |  | 
3 | Cc1ccc(-c2nnc(NC(=O)c3cccc(CCl)c3)s2)cc1 | 12.6 µM |  |  |  |  |  |  |  | 3.84 µM |  |  |  |  |  |  |  |  | 
4 | O=C(Nc1nnc(-c2ccccc2Cl)s1)c1cc(C(F)(F)F)cc(C(F)(F)F)c1 | 2.74 µM |  | 0.73 nmol | 2.79 µmol/min | 0.002 µmol/min/mg | 0.016 µmol | 291.8 µg/mL | 5.87 U/mg | 0.97 µM | 21.67 s | 4.5 s | 73.75 s | 84.25 s | 89.75 s | 30.75 s | 25.33 s | 3 | 52.92 s
5 | Cc1ccc(-c2nnc(NC(=O)CC(C)CC(C)(C)C)s2)cc1 (stereo unspecified) | 23.7 µM | 8.36 µM |  |  |  |  |  |  |  |  |  |  |  |  |  |  |  | 
6 | CC(CC(=O)Nc1nnc(Cc2ccccc2)s1)CC(C)(C)C (stereo unspecified) | 27.1 µM | 3.99 µM |  |  |  |  |  |  |  |  |  |  |  |  |  |  |  | 
7 | O=C(Nc1nnc(-c2ccccc2Cl)s1)c1cccc(CCl)c1 | 3 µM | 0.66 µM | 0.76 nmol | 1.9 µmol/min | 0.003 µmol/min/mg | 0.01 µmol | 308.8 µg/mL | 5.95 U/mg |  | 22.5 s | 5.25 s | 62.92 s | 76.08 s | 85.92 s | 34.58 s | 24.33 s | 4.5 | 44.75 s
8 | CC(=O)Oc1cccc(C(=O)Nc2nnc(Cc3ccccc3)s2)c1 | 11.6 µM | 5.67 µM |  |  |  |  |  |  |  |  |  |  |  |  |  |  |  | 
9 | CC(CC(=O)Nc1nnc(-c2cccc(Cl)c2)s1)CC(C)(C)C (stereo unspecified) | 13.7 µM | 2.67 µM |  |  |  |  |  |  |  |  |  |  |  |  |  |  |  | 
10 | O=C(Nc1nnc(-c2ccccc2)s1)c1cccc(CCl)c1 | 4.09 µM | 0.85 µM | 0.67 nmol | 2.67 µmol/min | 0.004 µmol/min/mg | 0.012 µmol | 268.5 µg/mL | 5.95 U/mg |  |  |  |  |  |  |  |  |  | 
11 | CC(=O)Oc1cccc(C(=O)Nc2nnc(-c3ccc(C)cc3)s2)c1 | 10.8 µM | 3.77 µM |  |  |  |  |  |  |  |  |  |  |  |  |  |  |  | 
12 | CCN(C)C(=O)Oc1cccc([C@H](C)N(C)C)c1 [RIVASTIGMINE] |  |  | 2.34 nmol | 1.88 µmol/min | 0.005 µmol/min/mg | 0.014 µmol | 418.2 µg/mL | 4.24 U/mg |  | 34.08 s | 12.25 s | 72.92 s | 83.83 s | 89.75 s | 37.08 s | 15 s | 8.75 | 54.58 s
13 | Cc1ccc(-c2nnc(NC(=O)c3cc(C(F)(F)F)cc(C(F)(F)F)c3)s2)cc1 | 7.09 µM | 3.77 µM | 1.09 nmol | 2.69 µmol/min | 0.003 µmol/min/mg | 0.012 µmol | 306.5 µg/mL | 5.23 U/mg |  |  |  |  |  |  |  |  |  | 
14 | CC(=O)Oc1cccc(C(=O)Nc2nnc(-c3ccccc3)s2)c1 | 3.78 µM |  |  |  |  |  |  |  | 0.91 µM |  |  |  |  |  |  |  |  | 
15 | CC(=O)Oc1cccc(C(=O)Nc2nnc(-c3ccccc3Cl)s2)c1 | 3.03 µM | 0.64 µM | 0.76 nmol | 2.66 µmol/min | 0.004 µmol/min/mg | 0.013 µmol | 265.5 µg/mL | 5.29 U/mg |  | 23.92 s | 4.5 s | 62.33 s | 77.83 s | 88.42 s | 36.33 s | 23.33 s | 4.25 | 46.83 s
